Measured values published in patent US20240215582A1, “METHODS OF CONTROLLING PLANT PATHOGENS” (Valent BioSciences LLC, priority 2022, published 2024).
Read-outs that look alike come from different tables or passages of the source.

Tests used:
Phytophthora infestans = type: in vivo
Zymoseptoria tritici [1] = assay: Host plant efficacy assay (wheat); type: in vivo
Cochliobolus miyabeanus = assay: In vitro growth on cervinomycin-amended growth media; type: cell-based
Phakopsora pachyrhizi = assay: Host plant efficacy assay (soybean); type: in vivo
Botrytis cinerea = assay: Foliar application, inoculated plants, disease severity; details: for Disease severity B. cinerea: carrier control severity 63.3; for percent control B. cinerea: vs carrier control
Procedure: (§1) Biological efficacy assays utilizing cervinomycins were conducted on Pseudoperonospora cubensis and Botrytis cinerea. […] Once plants had dried they were inoculated with the pathogen, then were stored in a controlled climate chamber under high humidity for 4-6 days. At the end of the experiment disease severity was determined based on the percentage of plant tissue that was visually symptomatic.

[2] = system: Pseudoperonospora cubensis; assay: Host plant efficacy assay (cucumber); type: in vivo
[3] = system: Pseudoperonospora cubensis; assay: Field and greenhouse trials (cucumber, squash); type: in vivo; details: P. cubensis
Magnaporthe oryzae = type: in vivo
Fusarium graminearum = type: cell-based
Erysiphe diffusa = assay: Host plant efficacy assay (soybean); type: in vivo
Puccinia triticina = assay: Host plant efficacy assay (wheat); type: in vivo
Ustilago maydis = assay: In vitro growth on cervinomycin-amended growth media; type: cell-based
Cladosporium carpophilum = assay: as above; type: cell-based
Sclerotinia sclerotiorum = assay: Host plant efficacy assay (common bean); type: in vivo
Plasmospora viticola = assay: Efficacy on grape plants infected with Plasmospora viticola; details: for % control Plasmospora viticola 1DAI: 1 day after infection; for % control Plasmospora viticola 1DAI / % control Plasmospora viticola 7DBI / % control Plasmospora viticola 1DB1: grape plants; for % control Plasmospora viticola 7DBI: 7 days before infection; for % control Plasmospora viticola 1DB1: 1 day before infection
Source text: Treatments occurred at either 1 day before infection (“1 DBI”), 7 days before infection (“7 DBI”) or 1 day after infection (“1 DAI”).

Phytophthora capsici = assay: In vitro growth on cervinomycin-amended growth media; type: cell-based
Pythium ultimum = assay: as above; type: cell-based
Podosphaera xanthii = assay: Host plant efficacy assay (cucumber); type: in vivo
Pyrenophora teres = assay: Host plant efficacy assay (barley); type: in vivo
Zymoseptoria tritici [4] = assay: In vitro growth on cervinomycin-amended growth media; type: cell-based
[5] = system: Pseudoperonospora cubensis; assay: Foliar application, inoculated plants, disease severity; details: for Disease severity P. cubensis Oct. 20, 2020: carrier control severity 70; for Disease severity P. cubensis Oct. 27, 2020: carrier control severity 79; for Disease severity P. cubensis Jul. 28, 2020: carrier control severity 67
Procedure: as §1

[6] = 500 ppm A2, untreated severity 34
[7] = 1000 ppm A2, untreated severity 34
[8] = 1500 ppm A2, untreated severity 34
[9] = 1 ppm foliar, vs carrier control
[10] = 3 ppm foliar, vs carrier control
[11] = 6 ppm foliar, vs carrier control
[12] = 12 ppm foliar, vs carrier control
[13] = 25 ppm foliar, vs carrier control
[14] = 30 ppm foliar, vs carrier control
[15] = 50 ppm foliar, vs carrier control

## COc1cc2oc3c(c(=O)c2cc1OC)C(=O)c1c(ccc2cc4c(c(O)c12)C(=O)N1CCOC1(C)C4)C3=O (stereo not shown) [Cervinomycin A2, cervinomycin A2]
Phytophthora infestans; 11.3 ppm
  % control Phytophthora infestans Tomato 1DBI: 0 (0 (about 0%))
Phytophthora infestans; 45 ppm
  % control Phytophthora infestans Tomato 1DBI: 0 (0 (about 0%))
Phytophthora infestans; 180 ppm
  % control Phytophthora infestans Tomato 1DBI: 3 (3 (about 70%))
Zymoseptoria tritici [1]; 11.3 ppm
  % control Zymoseptoria tritici Wheat 3DAI: 0 (0 (about 0%))
  % control Zymoseptoria tritici Wheat 4DBI: 0 (0 (about 0%))
Zymoseptoria tritici [1]; 45 ppm
  % control Zymoseptoria tritici Wheat 3DAI: 0 (0 (about 0%))
  % control Zymoseptoria tritici Wheat 4DBI: 0 (0 (about 0%))
Zymoseptoria tritici [1]; 180 ppm
  % control Zymoseptoria tritici Wheat 3DAI: 0 (0 (about 0%))
  % control Zymoseptoria tritici Wheat 4DBI: 0 (0 (about 0%))
Cochliobolus miyabeanus; 0.004 ppm in growth media
  % Control Cochliobolus miyabeanus: 0%
Cochliobolus miyabeanus; 0.016 ppm in growth media
  % Control Cochliobolus miyabeanus: 20%
Cochliobolus miyabeanus; 0.063 ppm in growth media
  % Control Cochliobolus miyabeanus: 49%
Cochliobolus miyabeanus; 0.25 ppm in growth media
  % Control Cochliobolus miyabeanus: 73%
Cochliobolus miyabeanus; 1 ppm in growth media
  % Control Cochliobolus miyabeanus: 87%
Phakopsora pachyrhizi; 11.3 ppm
  % control Phakopsora pachyrhizi Soybean 3DAI: 0 (0 (about 0%))
  % control Phakopsora pachyrhizi Soybean 4DBI: 0 (0 (about 0%))
Phakopsora pachyrhizi; 45 ppm
  % control Phakopsora pachyrhizi Soybean 3DAI: 0 (0 (about 0%))
  % control Phakopsora pachyrhizi Soybean 4DBI: 0 (0 (about 0%))
Phakopsora pachyrhizi; 180 ppm
  % control Phakopsora pachyrhizi Soybean 3DAI: 0 (0 (about 0%))
  % control Phakopsora pachyrhizi Soybean 4DBI: 2 (2 (about 50%))
Botrytis cinerea; 1 ppm foliar
  Disease severity B. cinerea: 58%
  percent control B. cinerea: (9%)
Botrytis cinerea; 3 ppm foliar
  Disease severity B. cinerea: 45%
  percent control B. cinerea: (29%)
Botrytis cinerea; 6 ppm foliar
  Disease severity B. cinerea: 45%
  percent control B. cinerea: (29%)
Botrytis cinerea; 12 ppm foliar
  Disease severity B. cinerea: 30%
  percent control B. cinerea: (53%)
Botrytis cinerea; 25 ppm foliar
  Disease severity B. cinerea: 24%
  percent control B. cinerea: (63%)
Botrytis cinerea; 50 ppm foliar
  Disease severity B. cinerea: 9%
  percent control B. cinerea: (87%)
Botrytis cinerea; foliar application
  control of Botrytis cinerea (summary of Table 3): significant control
[2]; 11.3 ppm
  % control Pseudoperonospora cubensis Cucumber 1DBI: 0 (0 (about 0%))
[2]; 45 ppm
  % control Pseudoperonospora cubensis Cucumber 1DBI: 0 (0 (about 0%))
[2]; 180 ppm
  % control Pseudoperonospora cubensis Cucumber 1DBI: 3 (3 (about 70%))
[3]; [6]
  % Control: 27%
  Disease Severity: 25%
[3]; [7]
  % Control: 22%
  Disease Severity: 26%
[3]; [8]
  % Control: 44%
  Disease Severity: 19%
Magnaporthe oryzae; 11.3 ppm
  % control Magnaporthe oryzae Rice 1DBI: 0 (0 (about 0%))
Magnaporthe oryzae; 45 ppm
  % control Magnaporthe oryzae Rice 1DBI: 0 (0 (about 0%))
Magnaporthe oryzae; 180 ppm
  % control Magnaporthe oryzae Rice 1DBI: 0 (0 (about 0%))
Fusarium graminearum; 0.004 ppm in growth media
  % Control Fusarium graminearum: 8%
Fusarium graminearum; 0.016 ppm in growth media
  % Control Fusarium graminearum: 4%
Fusarium graminearum; 0.063 ppm in growth media
  % Control Fusarium graminearum: 9%
Fusarium graminearum; 0.25 ppm in growth media
  % Control Fusarium graminearum: 0%
Fusarium graminearum; 1 ppm in growth media
  % Control Fusarium graminearum: 14%
Erysiphe diffusa; 11.3 ppm
  % control Erysiphe diffusa Soybean 2DAI: 0 (0 (about 0%))
Erysiphe diffusa; 45 ppm
  % control Erysiphe diffusa Soybean 2DAI: 0 (0 (about 0%))
Erysiphe diffusa; 180 ppm
  % control Erysiphe diffusa Soybean 2DAI: 0 (0 (about 0%))
Puccinia triticina; 11.3 ppm
  % control Puccinia triticina Wheat 6DBI: 0 (0 (about 0%))
Puccinia triticina; 45 ppm
  % control Puccinia triticina Wheat 6DBI: 0 (0 (about 0%))
Puccinia triticina; 180 ppm
  % control Puccinia triticina Wheat 6DBI: 0 (0 (about 0%))
Ustilago maydis; 0.004 ppm in growth media
  % Control Ustilago maydis: 6%
Ustilago maydis; 0.016 ppm in growth media
  % Control Ustilago maydis: 12%
Ustilago maydis; 0.063 ppm in growth media
  % Control Ustilago maydis: 90%
Ustilago maydis; 0.25 ppm in growth media
  % Control Ustilago maydis: 100%
Ustilago maydis; 1 ppm in growth media
  % Control Ustilago maydis: 100%
Cladosporium carpophilum; 0.004 ppm in growth media
  % Control Cladosporium carpophilum: 0%
Cladosporium carpophilum; 0.016 ppm in growth media
  % Control Cladosporium carpophilum: 0%
Cladosporium carpophilum; 0.063 ppm in growth media
  % Control Cladosporium carpophilum: 46%
Cladosporium carpophilum; 0.25 ppm in growth media
  % Control Cladosporium carpophilum: 99%
Cladosporium carpophilum; 1 ppm in growth media
  % Control Cladosporium carpophilum: 99%
Sclerotinia sclerotiorum; 11.3 ppm
  % control Sclerotinia sclerotiorum Common bean 1DBI: 0 (0 (about 0%))
Sclerotinia sclerotiorum; 45 ppm
  % control Sclerotinia sclerotiorum Common bean 1DBI: 0 (0 (about 0%))
Sclerotinia sclerotiorum; 180 ppm
  % control Sclerotinia sclerotiorum Common bean 1DBI: 0 (0 (about 0%))
Plasmospora viticola; 13-800 ppm
  control of P. viticiola (summary of Table 1): significant control
Plasmospora viticola; 13 ppm
  % control Plasmospora viticola 1DAI: 0%
  % control Plasmospora viticola 7DBI: 61%
Plasmospora viticola; 50 ppm
  % control Plasmospora viticola 1DB1: 100%
  % control Plasmospora viticola 7DBI: 91%
Plasmospora viticola; 200 ppm
  % control Plasmospora viticola 1DAI: 0%
  % control Plasmospora viticola 1DB1: 100%
Plasmospora viticola; 800 ppm
  % control Plasmospora viticola 1DAI: 5%
  % control Plasmospora viticola 1DB1: 100%
  % control Plasmospora viticola 7DBI: 100%
Phytophthora capsici; 0.004 ppm in growth media
  % Control Phytophthora capsici: 4%
Phytophthora capsici; 0.016 ppm in growth media
  % Control Phytophthora capsici: 75%
Phytophthora capsici; 0.063 ppm in growth media
  % Control Phytophthora capsici: 90%
Phytophthora capsici; 0.25 ppm in growth media
  % Control Phytophthora capsici: 99%
Phytophthora capsici; 1 ppm in growth media
  % Control Phytophthora capsici: 100%
Pythium ultimum; 0.004 ppm in growth media
  % Control Pythium ultimum: 0%
Pythium ultimum; 0.016 ppm in growth media
  % Control Pythium ultimum: 13%
Pythium ultimum; 0.063 ppm in growth media
  % Control Pythium ultimum: 99%
Pythium ultimum; 0.25 ppm in growth media
  % Control Pythium ultimum: 96%
Pythium ultimum; 1 ppm in growth media
  % Control Pythium ultimum: 99%
Podosphaera xanthii; 11.3 ppm
  % control Podosphaera xanthii Cucumber 1DBI: 0 (0 (about 0%))
Podosphaera xanthii; 45 ppm
  % control Podosphaera xanthii Cucumber 1DBI: 0 (0 (about 0%))
Podosphaera xanthii; 180 ppm
  % control Podosphaera xanthii Cucumber 1DBI: 0 (0 (about 0%))
Pyrenophora teres; 11.3 ppm
  % control Pyrenophora teres Barley 1DBI: 0 (0 (about 0%))
Pyrenophora teres; 45 ppm
  % control Pyrenophora teres Barley 1DBI: 0 (0 (about 0%))
Pyrenophora teres; 180 ppm
  % control Pyrenophora teres Barley 1DBI: 0 (0 (about 0%))
Zymoseptoria tritici [4]; 0.004 ppm in growth media
  % Control Zymoseptoria tritici: 1%
Zymoseptoria tritici [4]; 0.016 ppm in growth media
  % Control Zymoseptoria tritici: 2%
Zymoseptoria tritici [4]; 0.063 ppm in growth media
  % Control Zymoseptoria tritici: 6%
Zymoseptoria tritici [4]; 0.25 ppm in growth media
  % Control Zymoseptoria tritici: 62%
Zymoseptoria tritici [4]; 1 ppm in growth media
  % Control Zymoseptoria tritici: 100%
[5]; 1 ppm foliar
  Disease severity P. cubensis Oct. 20, 2020: 52%
  Disease severity P. cubensis Oct. 27, 2020: 7%
[5]; [9]
  percent control P. cubensis Oct. 20, 2020: (26%)
  percent control P. cubensis Oct. 27, 2020: 91%
[5]; 3 ppm foliar
  Disease severity P. cubensis Oct. 20, 2020: 27%
  Disease severity P. cubensis Oct. 27, 2020: 7%
[5]; [10]
  percent control P. cubensis Oct. 20, 2020: (61%)
  percent control P. cubensis Oct. 27, 2020: 91%
[5]; 6 ppm foliar
  Disease severity P. cubensis Oct. 20, 2020: 16%
  Disease severity P. cubensis Oct. 27, 2020: 2%
[5]; [11]
  percent control P. cubensis Oct. 20, 2020: (77%)
  percent control P. cubensis Oct. 27, 2020: 98%
[5]; 12 ppm foliar
  Disease severity P. cubensis Oct. 20, 2020: 3%
  Disease severity P. cubensis Oct. 27, 2020: 1%
[5]; [12]
  percent control P. cubensis Oct. 20, 2020: (95%)
  percent control P. cubensis Oct. 27, 2020: 99%
[5]; 15 ppm foliar
  Disease severity P. cubensis Jul. 28, 2020: 28%
[5]; 15 ppm foliar, vs carrier control
  percent control P. cubensis Jul. 28, 2020: 58%
[5]; 25 ppm foliar
  Disease severity P. cubensis Oct. 20, 2020: 4%
  Disease severity P. cubensis Oct. 27, 2020: 1%
[5]; [13]
  percent control P. cubensis Oct. 20, 2020: (94%)
  percent control P. cubensis Oct. 27, 2020: 99%
[5]; 30 ppm foliar
  Disease severity P. cubensis Jul. 28, 2020: 10%
[5]; 30 ppm foliar, carrier control severity 98
  Disease severity P. cubensis Jul. 14, 2020: 73%
[5]; [14]
  percent control P. cubensis Jul. 14, 2020: 26%
  percent control P. cubensis Jul. 28, 2020: 85%
[5]; 50 ppm foliar
  Disease severity P. cubensis Oct. 20, 2020: 7%
  Disease severity P. cubensis Oct. 27, 2020: 2%
[5]; [15]
  percent control P. cubensis Oct. 20, 2020: (89%)
  percent control P. cubensis Oct. 27, 2020: 98%
[5]; 60 ppm foliar
  Disease severity P. cubensis Jul. 28, 2020: 18%
[5]; 60 ppm foliar, vs carrier control
  percent control P. cubensis Jul. 28, 2020: 73%
[5]; foliar application
  control of Pseudoperonospora cubensis (summary of Table 3): significant control
